The source of these data is publication PMC10154330, “Machine learning-driven multifunctional peptide engineering for sustained ocular drug delivery” (Nature Communications, 2023).

Ends that are not written are not given here.

In data set [1] the test system is ARPE-19 cells. The data set is described as follows: Cell viability assay of HR97 peptide (PrestoBlue HS). Particulars: concentrations up to 5 mg/mL, 12 h incubation, n = 5. The data set is classed as cell-based, human. On the procedure:
The PrestoBlue^TM HS cell viability system was used to assess cell viability. ARPE-19 cells were seeded at 0.01 × 10^6 cells/well in 96 well plates and cultured with DMEM:F12 medium containing 10% FBS according to the vendor protocol. After 7 days, 90 µL of DMEM/F12 containing 0, 1, 5, 10, or 20 mg/mL of the HR97 was added. The cells (n = 5) were then incubated for 12 h, and viability was measured by adding 10 µL of PrestoBlue^TM HS cell viability reagents at 37 °C. After 0.5, 1, 2, 3, 4 and 5 h, absorbance (570 nm and 600 nm) was measured at 37 °C and normalized according to the protocol provided by the vendor.

Data set [2] deals with human cathepsins B, K, L, and S. The data set is described as follows: in vitro. Particulars: isolated enzyme cathepsin other, pH 5.5, cathepsin cleavage assay.
A short description of data set [3]: Ocular safety evaluation / ocular grading after ICM injection. Particulars: rabbit, in vivo. The procedure: For the IOP measurements in normotensive rabbits, Dutch Belted rabbits (2–3 kg) were used (n = 5). IOP was measured with a hand-held rebound tonometer icareTONOVET (Vantaa, Finland) in the awake and gently restrained rabbit. Each rabbit was acclimatized to the IOP measurement procedure for at least 5 days to obtain a stable background IOP reading. A mean of three IOP measurements for an individual eye were taken every other day for 6 days (3 times in total) and used as a baseline value. For the ICM injection procedure, rabbits were anesthetized with ketamine/xylazine and received topical anesthesia with 0.5% proparacaine hydrochloride. A corneal pre-puncture was performed with a 30 G needle, followed with a single bolus ICM injection of 200 µg (mass of brimonidine) of HR97-brimonidine or brimonidine tartrate solution in 100 µL saline using a 28 G needle. After the procedure, topical bacitracin-neomycin-polymyxin ophthalmic ointment was applied to both eyes to prevent infection and dry eyes. On day 7, an ophthalmologist masked to treatment evaluate the HR97-brimonidine injected eyes with the following items: functionality of lids, lashes, conjunctiva, cornea transparency, pigmentation of corneal endothelium, depth of anterior chambers, inflammation, fibrin strands, and symmetry of the lens[113]. […] In a separate study, a corneal pre-puncture was performed with a 30 G needle, followed with a single bolus ICM injection of 200 µg (mass of brimonidine) containing a physical mixture of unconjugated HR97 and brimonidine tartrate (HR97 + brimonidine), the equivalent amount of HR97 peptide alone, or saline alone in 100 µL saline. On day 7, day 14, day 21, and day 28, an ophthalmologist masked to treatment performed the same safety evaluations described above. IOP was measured on days 2, 3, 4, 5, 6, 7, 8, 10, 12, 14, 16, 18, and 20 after the ICM injection, and change in IOP from the baseline (ΔIOP) was reported. The mean of three IOP measurements was taken for each eye by one observer, and then confirmed by a masked observer. Alternatively, a single topical eye drop (Alphagan® P 0.1%, 50 µL) was given (n = 5). The IOP were measured immediately before the topical dosing (0 h), and at 2, 4, 6 and 8 h after the eyedrop administration. For the pharmacokinetics studies, rabbits (n = 4 per group) received a single ICM injection with 200 µg (mass of brimonidine) HR97-brimonidine as described above. Rabbits were sacrificed 1, 7, 14, 28 days after the injection, and iris, aqueous, and retina were collected for measuring the brimonidine concentration.

As a reminder, the amount remaining is the share of the starting amount still present when the sample was taken. Read a low amount remaining as more turnover.

Take FSGKRRKRKPR [HR97]: in data set [1], the “cytotoxicity in ARPE-19 cells” value is recorded as “no sign of cytotoxicity”. For the same sequence, in data set [2], the fraction remaining at 48 h, 100 µM amounted to 87.7%. For the same sequence, in data set [3], the “Ocular grading, all 17 items (pupillary light reflex to Meibomian gland function)” value was “All values are zero”; the “Ocular grading, all other scores of the 17 items” value is reported as 0; the “Ocular grading: Fluorescein staining (area)” value came out at 1; the “Ocular grading: Fluorescein staining (severity)” value came to 1. For the same sequence, the “ocular toxicity, ophthalmologist evaluation” value in data set [3] is on record as “no ocular toxicity was observed”.
